The results in this text go back to patent US9370515B2, “Mixed lineage kinase inhibitors and method of treatments” (CALIFIA BIO, INC., priority 2013, dated 2016).

SMILES strings stand for the structures.

Chain of MLK-3 (Q16584 whole entry): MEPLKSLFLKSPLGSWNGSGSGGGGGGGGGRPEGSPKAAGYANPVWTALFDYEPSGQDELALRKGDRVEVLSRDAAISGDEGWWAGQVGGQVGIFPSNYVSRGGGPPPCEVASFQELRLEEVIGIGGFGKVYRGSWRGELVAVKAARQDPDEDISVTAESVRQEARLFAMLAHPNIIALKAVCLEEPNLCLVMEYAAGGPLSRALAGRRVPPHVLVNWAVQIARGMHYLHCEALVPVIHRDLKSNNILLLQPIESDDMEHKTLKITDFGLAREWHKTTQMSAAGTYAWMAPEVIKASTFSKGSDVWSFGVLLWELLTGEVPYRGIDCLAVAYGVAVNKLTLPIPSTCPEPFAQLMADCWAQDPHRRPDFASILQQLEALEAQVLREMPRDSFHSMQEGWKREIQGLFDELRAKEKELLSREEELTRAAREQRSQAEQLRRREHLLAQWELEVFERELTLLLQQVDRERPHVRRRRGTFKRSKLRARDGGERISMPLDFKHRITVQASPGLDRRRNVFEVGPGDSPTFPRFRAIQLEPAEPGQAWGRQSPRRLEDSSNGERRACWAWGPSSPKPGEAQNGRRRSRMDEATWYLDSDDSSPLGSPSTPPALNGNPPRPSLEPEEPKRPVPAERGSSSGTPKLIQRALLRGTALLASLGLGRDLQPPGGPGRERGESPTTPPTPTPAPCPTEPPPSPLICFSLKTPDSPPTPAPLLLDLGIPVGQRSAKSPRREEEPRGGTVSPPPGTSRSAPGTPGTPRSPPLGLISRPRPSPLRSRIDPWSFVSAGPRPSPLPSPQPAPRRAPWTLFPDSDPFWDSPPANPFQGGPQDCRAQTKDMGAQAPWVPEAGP

The assay concerns the target MLK-3 (Homo sapiens, UniProt Q16584). The assay is described as follows: Biochemical assay for the inhibition of kinase activity for MLK-3 (33P-ATP, HOTSPOT filter binding). The settings on record: activated MLK-3 20 nM, ATP 50 μM, myelin basic protein 20 μM, 20 minutes room temperature. The protocol:
Biochemical Assay for the Inhibition of Kinase Activity for MLK-3: Myelin basic protein (20 μM final concentration) is dissolved in 20 mM Hepes (pH 7.5) containing […], […], 0.02% Brij35, 0.02 mg/ml BSA, 0.1 μM Na3VO4, 2 mM DTT, and 1% DMSO. Activated MLK-3 is added and mixed (20 nM final concentration), and inhibitors are added in DMSO. ^33P-ATP (specific activity 500 μCi/μL) is delivered into the reaction mixture to initiate the reaction (ATP concentration is 50 μM) and the mixture is incubated at room temperature for 20 minutes. % Activity is determined using a proprietary HOTSPOT™ microfluidic filter binding technology. See, Expert Opin. Drug Discov. 2008 June; 3(6): 607-621.
Broadly, the IC50 is the concentration needed to halve the response being measured. `COc1ccc(Nc2ccc3ncc(-c4ccc5ccccc5c4)n3n2)cc1OC` [Compound 62, N-(3,4-dimethoxyphenyl)-3-(naphthalen-3-yl)imidazo[1,2-b]pyridazin-6-amine] registered a half-maximal inhibitory concentration (IC50) of under 5000 nM.
In the case of `O=C(O)c1cccc(Nc2ccc3ncc(-c4ccc5ccccc5c4)n3n2)c1` [Compound 63, 3-(3-(naphthalen-3-yl)imidazo[1,2-b]pyridazin-6-ylamino)benzoic acid] it was 100 to 500 nM.
In the case of `COc1cc2cc(-c3cnc4ccc(-c5ccc6[nH]ccc6c5)nn34)sc2cc1OC` [Compound 69, 6-(1H-indol-5-yl)-3-(5,6-dimethoxybenzo[b]thiophen-2-yl)imidazo[1,2-b]pyridazine] it was under 100 nM; in that of `COc1cc2cc(-c3cnc4ccc(Nc5ccc(OCCCO)c(OC)c5)nn34)sc2cc1OC` [Compound 70, 3-(4-(3-(5,6-dimethoxybenzo[b]thiophen-2-yl)imidazo[1,2-b]pyridazin-6-ylamino)-2-methoxyphenoxy)propan-1-ol], under 100 nM.
In the case of `COc1cc2cc(-c3cnc4ccc(Nc5cccc(C(=O)O)c5)nn34)sc2cc1OC` [Compound 71, 3-(3-(5,6-dimethoxybenzo[b]thiophen-2-yl)imidazo[1,2-b]pyridazin-6-ylamino)benzoic acid] it was under 100 nM.
The compound `COc1ccc2cc(-c3cnc4ccc(Nc5ccc(OC)c(OC)c5)nn34)sc2c1` [Compound 72, 3-(6-methoxybenzo[b]thiophen-2-yl)-N-(3,4-dimethoxyphenyl)imidazo[1,2-b]pyridazin-6-amine] displayed an IC50 of 100 to 500 nM.
Take `COc1cc2cc(-c3cnc4ccc(-c5ccc(CN6CCN(C)CC6)cc5)nn34)sc2cc1OC` [Compound 73, 3-(5,6-dimethoxybenzo[b]thiophen-2-yl)-6-(4-((4-methylpiperazin-1-yl)methyl)phenyl)imidazo[1,2-b]pyridazine]: the half-inhibitory concentration (IC50) fell in the range of 500 to 1000 nM.
In the case of `COc1cc2cc(-c3cnc4ccc(-c5cccc(CN6CCN(C)CC6)c5)nn34)sc2cc1OC` [Compound 74, 3-(5,6-dimethoxybenzo[b]thiophen-2-yl)-6-(3-((4-methylpiperazin-1-yl)methyl)phenyl)imidazo[1,2-b]pyridazine] it was 500 to 1000 nM; in that of `COc1ccc(N(C)c2ccc3ncc(-c4cc5cc(OC)c(OC)cc5s4)n3n2)cc1OC` [Compound 75, 3-(5,6-dimethoxybenzo[b]thiophen-2-yl)-N-(3,4-dimethoxyphenyl)-N-methylimidazo[1,2-b]pyridazin-6-amine], 100 to 500 nM; in that of `COc1ccc(Nc2ccc3ncc(-c4cc5c(OC)c(OC)c(OC)cc5s4)n3n2)cc1OC` [Compound 76, 3-(4,5,6-trimethoxybenzo[b]thiophen-2-yl)-N-(3,4-dimethoxyphenyl)imidazo[1,2-b]pyridazin-6-amine], under 5000 nM.
In the case of `Oc1cccc2cc(-c3cnc4ccc(N[C@H]5CC[C@H](O)CC5)nn34)sc12` [Compound 77] it was under 100 nM; in that of `COc1ccc(Nc2ccc3ncc(-c4cc5cccc(OC(C)=O)c5s4)n3n2)cc1OC` [Compound 78, 2-(6-(3,4-dimethoxyphenylamino)imidazo[1,2-b]pyridazin-3-yl)benzo[b]thiophen-7-yl acetate], 100 to 500 nM.
Regarding `COc1ccc(Nc2ccc3ncc(-c4cc5cccc(O)c5s4)n3n2)cc1OC` [Compound 79, 2-(6-(3,4-dimethoxyphenylamino)imidazo[1,2-b]pyridazin-3-yl)benzo[b]thiophen-7-ol], the IC50 was under 100 nM.
In the case of `COc1ccc(Nc2ccc3ncc(-c4cc5cccc(OC(C)C)c5s4)n3n2)cc1OC` [Compound 80, 3-(7-isopropoxybenzo[b]thiophen-2-yl)-N-(3,4-dimethoxyphenyl)imidazo[1,2-b]pyridazin-6-amine] it was 100 to 500 nM.
In the case of `CCCOc1cccc2cc(-c3cnc4ccc(Nc5ccc(OC)c(OC)c5)nn34)sc12` [Compound 81, N-(3,4-dimethoxyphenyl)-3-(7-propoxybenzo[b]thiophen-2-yl)imidazo[1,2-b]pyridazin-6-amine] it was 500 to 1000 nM; in that of `COc1ccc(Nc2ccc3ncc(-c4cc5cc(OC)c(OC)c(OC)c5s4)n3n2)cc1OC` [Compound 83, 3-(5,6,7-trimethoxybenzo[b]thiophen-2-yl)-N-(3,4-dimethoxyphenyl)imidazo[1,2-b]pyridazin-6-amine], under 5000 nM; in that of `COc1ccc(Nc2ccc3ncc(-c4ccc(CO)s4)n3n2)cc1OC` [Compound 84, (5-(6-(3,4-dimethoxyphenylamino)imidazo[1,2-b]pyridazin-3-yl)thiophen-2-yl)methanol], under 5000 nM.
In the case of `COc1ccc2[nH]c(-c3cnc4ccc(N[C@H]5CC[C@H](O)CC5)nn34)cc2c1` [Compound 85, trans-4-(3-(5-methoxy-1H-indol-2-yl)imidazo[1,2-b]pyridazin-6-ylamino)cyclohexanol] it was under 100 nM; in that of `COc1ccc2cc(-c3cnc4ccc(N[C@H]5CC[C@H](O)CC5)nn34)[nH]c2c1` [Compound 86, trans-4-(3-(6-methoxy-1H-indol-2-yl)imidazo[1,2-b]pyridazin-6-ylamino)cyclohexanol], 100 to 500 nM.
As to `COc1cccc2cc(-c3cnc4ccc(N[C@H]5CC[C@H](O)CC5)nn34)[nH]c12` [Compound 87, trans-4-(3-(7-methoxy-1H-indol-2-yl)imidazo[1,2-b]pyridazin-6-ylamino)cyclohexanol], the IC50 was under 100 nM.
In the case of `O[C@H]1CC[C@H](Nc2ccc3ncc(-c4cc5ccccc5[nH]4)n3n2)CC1` [Compound 88, trans-4-(3-(1H-indol-2-yl)imidazo[1,2-b]pyridazin-6-ylamino)cyclohexanol] it was 100 to 500 nM; in that of `O[C@H]1CC[C@H](Nc2ccc3ncc(-c4csc5ccccc45)n3n2)CC1` [Compound 90, trans-4-(3-(benzo[b]thiophen-3-yl)imidazo[1,2-b]pyridazin-6-ylamino)cyclohexanol], 500 to 1000 nM.
In the case of `Oc1cccc(-c2cnc3ccc(N[C@H]4CC[C@H](O)CC4)nn23)c1` [Compound 101, trans-3-(6-(4-hydroxycyclohexylamino)imidazo[1,2-b]pyridazin-3-yl)phenol] it was under 5000 nM.
In the case of `Oc1ccc(-c2cnc3ccc(N[C@H]4CC[C@H](O)CC4)nn23)cc1` [Compound 102, trans-4-(6-(4-hydroxycyclohexylamino)imidazo[1,2-b]pyridazin-3-yl)phenol] it was under 5000 nM.
In turn, `CCCN(C)c1ccc2ncc(-c3cc4ccccc4s3)n2n1` [Compound 107, 3-(benzo[b]thiophen-2-yl)-N-methyl-N-propylimidazo[1,2-b]pyridazin-6-amine] had an IC50 of under 5000 nM.
In the case of `OCCNc1ccc2ncc(-c3cc4ccccc4s3)n2n1` [Compound 108, 2-(3-(benzo[b]thiophen-2-yl)imidazo[1,2-b]pyridazin-6-ylamino)ethanol] it was 500 to 1000 nM; in that of `OCCCNc1ccc2ncc(-c3cc4ccccc4s3)n2n1` [Compound 109, 3-(3-(benzo[b]thiophen-2-yl)imidazo[1,2-b]pyridazin-6-ylamino)propan-1-ol], 100 to 500 nM.
In the case of `OCCCCNc1ccc2ncc(-c3cc4ccccc4s3)n2n1` [Compound 110, 4-(3-(benzo[b]thiophen-2-yl)imidazo[1,2-b]pyridazin-6-ylamino)butan-1-ol] it was 100 to 500 nM.
